Measured values reported in publication PMC3750913 (BMC Microbiology, 2013).

How the values were obtained:
[1] = test system: HCV; assay: Viral attachment assay, method 2 (virus-specific cellular ELISA); assay type: cell-based, hepatitis C virus; conditions: HCV MOI 0.1, ELISA, 4°C; highest inhibitory concentration of the compounds
[2] = test system: HCMV; assay: as above; assay type: cell-based, human cytomegalovirus; conditions: HCMV MOI 5, ELISA, 4°C; highest inhibitory concentration of the compounds
[3] = test system: MV; assay: Analysis of drug effects post viral entry; assay type: cell-based, measles virus; conditions: MV, CHO-SLAM cells; CHLA 90 μM, PUG 50 μM, Heparin 10 μg/ml
[4] = test system: RSV; assay: Analysis of drug effects post viral entry; assay type: cell-based, respiratory syncytial virus; conditions: RSV, HEp-2 cells; CHLA 1 μM, PUG 2 μM, Heparin 1 μg/ml
[5] = test system: DENV-2; assay: Viral penetration assay; assay type: cell-based, dengue virus type 2; conditions: DENV-2, Vero cells; CHLA 25 μM, PUG 25 μM, Heparin 200 μg/ml
[6] = test system: MV; assay: Viral attachment assay, method 1 (host cell infection); assay type: cell-based, measles virus; conditions: MV, CHO-SLAM cells, 4°C; CHLA 90 μM, PUG 50 μM, Heparin 10 μg/ml
[7] = test system: DENV-2; assay: Viral attachment assay, method 2 (virus-specific cellular ELISA); assay type: cell-based, dengue virus type 2; conditions: DENV-2 MOI 5, ELISA, 4°C; highest inhibitory concentration of the compounds
[8] = test system: DENV-2; assay: Viral inactivation assay; assay type: cell-based, dengue virus type 2; conditions: DENV-2, Vero cells; CHLA 25 μM, PUG 25 μM, Heparin 200 μg/ml
[9] = test system: ADV-5; parameters: method as in PMID 16894186, PMID 10704346; conditions: HS-mediated entry; ref [51], [52]; cited from earlier work
[10] = test system: HCMV; assay: Viral attachment assay, method 1 (host cell infection); assay type: cell-based, human cytomegalovirus; conditions: HCMV, HEL cells, 4°C; CHLA 60 μM, PUG 40 μM, Heparin 30 μg/ml
[11] = test system: RSV; assay: as above; assay type: cell-based, respiratory syncytial virus; conditions: RSV, HEp-2 cells, 4°C; CHLA 1 μM, PUG 2 μM, Heparin 1 μg/ml
[12] = test system: RSV; assay: Viral cell-to-cell spread assay; assay type: cell-based, respiratory syncytial virus; conditions: RSV
[13] = test system: RSV; assay: Viral attachment assay, method 2 (virus-specific cellular ELISA); assay type: cell-based, respiratory syncytial virus; conditions: RSV MOI 5, ELISA, 4°C; highest inhibitory concentration of the compounds
[14] = test system: HCV; assay: Viral penetration assay; assay type: cell-based, hepatitis C virus; conditions: HCV
[15] = test system: HCV; assay: Analysis of drug effects post viral entry; assay type: cell-based, hepatitis C virus; conditions: HCV, Huh-7.5 cells; CHLA 50 μM, PUG 50 μM, Heparin 1000 μg/ml
[16] = test system: HCV; assay: Viral attachment assay, method 1 (host cell infection); assay type: cell-based, hepatitis C virus; conditions: HCV, Huh-7.5 cells, 4°C; CHLA 50 μM, PUG 50 μM, Heparin 1000 μg/ml
[17] = test system: MV; assay: Viral penetration assay; assay type: cell-based, measles virus; conditions: MV
[18] = test system: DENV-2; assay: Viral cell-to-cell spread assay; assay type: cell-based, dengue virus type 2
[19] = test system: HCMV; assay: Analysis of drug effects post viral entry; assay type: cell-based, human cytomegalovirus; conditions: HCMV, HEL cells; CHLA 60 μM, PUG 40 μM, Heparin 30 μg/ml
[20] = test system: HCMV; assay: Viral penetration assay; assay type: cell-based, human cytomegalovirus; conditions: HCMV
[21] = test system: HCV; assay: Viral cell-to-cell spread assay; assay type: cell-based, hepatitis C virus; conditions: HCV
Protocol: (A) Schematic of the experiment (left) with the virus concentration (PFU/well) and step-wise incubation periods (i, ii, iii) indicated for each virus in the table on the right. Virus infections were established (i) in the different cell types by direct inoculation (HCMV, DENV-2, MV, and RSV) or electroporation of viral RNA (HCV; *), and the cell monolayers were washed with citrate buffer or PBS before being covered with an overlay medium that prevents secondary infection. Initial virus plaques were allowed to form in the subsequent infections (ii), and then the test compounds were added to the overlay medium for an additional time of incubation (iii) before analysis of viral plaque size by immune fluorescence microscopy. Five random virus-positive plaques at the endpoint of the experiment were evaluated for each treatment group of viruses, and the data was plotted as “fold change of plaque area” against the size of the initial viral plaques formed prior to test compound treatment. Analyses for (B) HCMV, (C) HCV, (D) DENV-2, (E) MV, and (F) RSV are indicated in each additional panel. The S29 cell line and the FIP inhibitor were included as controls for HCV and MV, respectively. Results shown are means ± SEM from three independent experiments and representative micrographs of the evaluated plaques are provided in Additional file 1 Figure S1, Additional file 2 Figure S2, Additional file 3 Figure S3, Additional file 4 Figure S4 and Additional file 5 Figure S5. See text for details.
The examination of HCV spread is based on previously described protocol with some modifications. Huh-7.5 cells were electroporated with HCV Jc1FLAG2(p7-nsGluc2A) RNA (10 μg) as described above to establish random productive infections in the cell population, and then mixed with naïve cells at a ratio of 1:1 before seeding in 12-well plates. […] Medium was changed 24 h post-electroporation with an overlay medium containing the test drugs or control and 0.5% methylcellulose, and the plates were further incubated for 5 days before analysis of HCV-positive foci through immunostaining.
For immunofluorescence analysis of viral plaque size due to spread, the overlay media were removed and the wells were fixed with ice-cold methanol before blocking with 3% BSA. Samples were then treated at 37°C for 1 h with the respective mouse monoclonal primary antibodies diluted in PBS containing 3% BSA: anti-HCMV gB antibody (1:1,000), anti-NS5A 9E10 antibody for HCV (1:25,000), anti-flavivirus group antibody (1:400) for DENV-2, and anti-RSV fusion protein antibody (1:1,000). After incubation, the wells were washed with PBS three times before applying Alexa Fluor 488 goat anti-mouse IgG (H + L) antibody (Invitrogen), diluted at 1:1,000 (HCMV and RSV) or 1:400 (DENV-2 and HCV) in PBS containing 3% BSA. Following incubation at 37°C for 1 h, the samples were washed with PBS three times prior to visualization by fluorescence microscopy. The fluorescence expression of MV-EGFP could be readily detected without addition of antibodies. Photomicrographs were taken at × 100 magnification (Leica Microsystems; Wetzlar, Germany) and viral plaque sizes were then analyzed with MetaMorph software (Molecular Devices; Sunnyvale, CA, USA). In the case of HCV, cellular nuclei were stained with Hoechst dye (Sigma) prior to visualization and the number of cells in the virus-positive foci was determined. For all virus tested, a total of five random virus-positive plaques were evaluated for each treatment group per independent experiment. Comparison was made between viral plaques stained prior to drug addition and those at the endpoint of the experiment, and the data were plotted as “fold change of plaque area”.

[22] = test system: RSV; assay: Viral inactivation assay; assay type: cell-based, respiratory syncytial virus; conditions: RSV, HEp-2 cells; CHLA 1 μM, PUG 2 μM, Heparin 1 μg/ml
[23] = test system: MV; assay: Viral cell-to-cell spread assay; assay type: cell-based, measles virus; conditions: MV
[24] = test system: HCMV; assay: Viral inactivation assay; assay type: cell-based, human cytomegalovirus; conditions: HCMV, HEL cells; CHLA 60 μM, PUG 40 μM, Heparin 30 μg/ml
[25] = test system: DENV-2; assay: Analysis of drug effects post viral entry; assay type: cell-based, dengue virus type 2; conditions: DENV-2, Vero cells; CHLA 25 μM, PUG 25 μM, Heparin 200 μg/ml
[26] = test system: HCMV; assay: Viral cell-to-cell spread assay; assay type: cell-based, human cytomegalovirus; conditions: HCMV
[27] = test system: DENV-2; assay: Viral attachment assay, method 1 (host cell infection); assay type: cell-based, dengue virus type 2; conditions: DENV-2, Vero cells, 4°C; CHLA 25 μM, PUG 25 μM, Heparin 200 μg/ml
[28] = Huh-7.5 cells, CHLA 50 μM, PUG 50 μM, Heparin 1000 μg/ml
[29] = CHO-SLAM cells, CHLA 90 μM, PUG 50 μM, Heparin 10 μg/ml
[30] = HEL cells, CHLA 60 μM, PUG 40 μM, Heparin 30 μg/ml

Which “Window of antiviral effects: Attachment Method 2, inhibitory effect relative to DMSO control” value [1] does the source give for Heparin [reference compound] here?
The value was “+++ (+++ > 75%)”.

And the “Window of antiviral effects: Attachment Method 2, inhibitory effect relative to DMSO control” value [2]?
Its value is “+++ (+++ > 75%)”.

And the “Window of antiviral effects: Post-infection, inhibitory effect relative to DMSO control” value [3]?
The value was “- (- < 25%)”.

What about the “Window of antiviral effects: Post-infection, inhibitory effect relative to DMSO control” value [4] of the same substance?
Its value is “- (- < 25%)”.

And the “Window of antiviral effects: Penetration, inhibitory effect relative to DMSO control” value [5]?
The value was “++ (++ 50–75%)”.

What about the “Window of antiviral effects: Attachment Method 1, inhibitory effect relative to DMSO control” value [6] of the same substance?
Its value is “+++ (+++ > 75%)”.

And the “Window of antiviral effects: Attachment Method 2, inhibitory effect relative to DMSO control” value [7]?
Its value is “+++ (+++ > 75%)”.

What about the “Window of antiviral effects: Free particle, inhibitory effect relative to DMSO control” value [8] of the same substance?
The value was “++ (++ 50–75%)”.

And the “maximum inhibition of ADV-5 by soluble heparin” value [9]?
The value was at most 50%.

What about the “Window of antiviral effects: Attachment Method 1, inhibitory effect relative to DMSO control” value [10] of the same substance?
The value was “++ (++ 50–75%)”.

And the “Window of antiviral effects: Attachment Method 1, inhibitory effect relative to DMSO control” value [11]?
The value was “+++ (+++ > 75%)”.

And the “Window of antiviral effects: Cell-to-cell spread, inhibitory effect relative to DMSO control” value ([12]; HEp-2 cells, CHLA 1 μM, PUG 2 μM, Heparin 1 μg/ml)?
The value was “- (- < 25%)”.

What about the “effect on viral plaque size (cell-to-cell spread)” value (“effect on viral plaque size” for short) ([12]; Figure 7) of the same substance?
Its value is “limited effect”.

What about the “Window of antiviral effects: Attachment Method 2, inhibitory effect relative to DMSO control” value [13] of the same substance?
Its value is “++ (++ 50–75%)”.

What about the “Window of antiviral effects: Penetration, inhibitory effect relative to DMSO control” value [14, 28] of the same substance?
Its value is “- (- < 25%)”.

And the “protection of the host cell from infection during virus penetration” value (from here on “protection of the host cell”) ([14]; shift 4°C to 37°C, Figure 4)?
The value was under 40%.

And the “Window of antiviral effects: Post-infection, inhibitory effect relative to DMSO control” value [15]?
Its value is “+ (+ 25–50%)”.

And the “Window of antiviral effects: Attachment Method 1, inhibitory effect relative to DMSO control” value [16]?
Its value is “+ (+ 25–50%)”.

And the “Window of antiviral effects: Penetration, inhibitory effect relative to DMSO control” value [17, 29]?
Its value is “+ (+ 25–50%)”.

What about the “protection of the host cell” value ([17]; shift 4°C to 37°C, Figure 4) of the same substance?
The value was under 40%.

What about the “Window of antiviral effects: Cell-to-cell spread, inhibitory effect relative to DMSO control” value ([18]; DENV-2, Vero cells, CHLA 25 μM, PUG 25 μM, Heparin 200 μg/ml) of the same substance?
The value was “- (- < 25%)”.

What about the “effect on viral plaque size” value ([18]; DENV-2, Figure 7) of the same substance?
The value was “limited effect”.

And the “Window of antiviral effects: Post-infection, inhibitory effect relative to DMSO control” value [19]?
The value was “- (- < 25%)”.

And the “Window of antiviral effects: Penetration, inhibitory effect relative to DMSO control” value [20, 30]?
The value was “+ (+ 25–50%)”.

And the “protection of the host cell” value ([20]; shift 4°C to 37°C, Figure 4)?
Its value is under 40%.

And the “Window of antiviral effects: Cell-to-cell spread, inhibitory effect relative to DMSO control” value [21, 28]?
Its value is “- (- < 25%)”.

What about the “effect on viral plaque size” value ([21]; Figure 7) of the same substance?
The value was “limited effect”.

What about the “Window of antiviral effects: Free particle, inhibitory effect relative to DMSO control” value [22] of the same substance?
Its value is “+ (+ 25–50%)”.

And the “Window of antiviral effects: Cell-to-cell spread, inhibitory effect relative to DMSO control” value [23, 29]?
The value was “- (- < 25%)”.

And the “effect on viral plaque size” value ([23]; Figure 7)?
The value was “limited effect”.

And the “Window of antiviral effects: Free particle, inhibitory effect relative to DMSO control” value [24]?
The value was “+ (+ 25–50%)”.

What about the “Window of antiviral effects: Post-infection, inhibitory effect relative to DMSO control” value [25] of the same substance?
The value was “- (- < 25%)”.

And the “Window of antiviral effects: Cell-to-cell spread, inhibitory effect relative to DMSO control” value [26, 30]?
The value was “- (- < 25%)”.

What about the “effect on viral plaque size” value ([26]; Figure 7) of the same substance?
Its value is “limited effect”.

And the “Window of antiviral effects: Attachment Method 1, inhibitory effect relative to DMSO control” value [27]?
The value was “+++ (+++ > 75%)”.
